In patent publication US20110237528A1, “COMPOSITIONS AND METHODS COMPRISING IMIDAZOLE AND TRIAZOLE DERIVATIVES” (INSTITUTE FOR ONEWORLD HEALTH, priority 2008, published 2011):

Legend:
[1] = system: cholera toxin (CTX)-induced net fluid secretion in small intestine loops; design: species or system mice (CD1 strain); settings: mouse, in vivo
[2] = biological target: T1, CFTR in the CHO-CFTR cell line (Homo sapiens, UniProt P13569); assay: CHO-CFTR assay (FLIPR assay, same conditions as T84 assay); format: cell-based; settings: average of at least 2 runs unless marked n = 1
T1 construct: expressed in transfected cells; host or cells: CHO (CHO-CFTR cell line)

[3] = biological target: T2, CFTR channel in human colonic T84 cells (Homo sapiens, UniProt P13569); assay: T84 assay (FLIPR membrane potential dye, forskolin/IBMX-stimulated); format: cell-based; settings: average of at least 2 runs unless marked n = 1
T2 construct: host or cells: T84 human colonic cells
Description: For example, Human colonic T84 cells can be acquired from the European Collection of Cell Cultures (ECACC) and grown in standard culture conditions as described by the supplier. On the day before assay 25,000 T84 cells per well are plated into standard black walled, clear bottom 384-well assay plates in standard growth medium consisting of DMEM:F12 with 10% FBS and incubated overnight. […] T84 cells are incubated with the FLIPR Red membrane potential dye for 45 minutes in the presence and absence of test compound before being transferred to a commercially available fluorescence imaging plate reader (FLIPR384, Molecular Devices Corporation). Fluorescence levels are monitored continuously every second for 150 seconds; after an initial 10 second baseline, CFTR channel activity is stimulated through the addition of 10 μM forskolin in the presence of 100 μM of the phosphodiesterase inhibitor iso-butyl-methylxanthine (IBMX). […] CFTR channel opening causes chloride ion efflux and subsequent depolarization of the cells, which is measured by an increase in fluorescence. CFTR inhibitor compounds prevent cell depolarization and the associated increase in fluorescence. […]

T1 sequence (P13569 whole entry): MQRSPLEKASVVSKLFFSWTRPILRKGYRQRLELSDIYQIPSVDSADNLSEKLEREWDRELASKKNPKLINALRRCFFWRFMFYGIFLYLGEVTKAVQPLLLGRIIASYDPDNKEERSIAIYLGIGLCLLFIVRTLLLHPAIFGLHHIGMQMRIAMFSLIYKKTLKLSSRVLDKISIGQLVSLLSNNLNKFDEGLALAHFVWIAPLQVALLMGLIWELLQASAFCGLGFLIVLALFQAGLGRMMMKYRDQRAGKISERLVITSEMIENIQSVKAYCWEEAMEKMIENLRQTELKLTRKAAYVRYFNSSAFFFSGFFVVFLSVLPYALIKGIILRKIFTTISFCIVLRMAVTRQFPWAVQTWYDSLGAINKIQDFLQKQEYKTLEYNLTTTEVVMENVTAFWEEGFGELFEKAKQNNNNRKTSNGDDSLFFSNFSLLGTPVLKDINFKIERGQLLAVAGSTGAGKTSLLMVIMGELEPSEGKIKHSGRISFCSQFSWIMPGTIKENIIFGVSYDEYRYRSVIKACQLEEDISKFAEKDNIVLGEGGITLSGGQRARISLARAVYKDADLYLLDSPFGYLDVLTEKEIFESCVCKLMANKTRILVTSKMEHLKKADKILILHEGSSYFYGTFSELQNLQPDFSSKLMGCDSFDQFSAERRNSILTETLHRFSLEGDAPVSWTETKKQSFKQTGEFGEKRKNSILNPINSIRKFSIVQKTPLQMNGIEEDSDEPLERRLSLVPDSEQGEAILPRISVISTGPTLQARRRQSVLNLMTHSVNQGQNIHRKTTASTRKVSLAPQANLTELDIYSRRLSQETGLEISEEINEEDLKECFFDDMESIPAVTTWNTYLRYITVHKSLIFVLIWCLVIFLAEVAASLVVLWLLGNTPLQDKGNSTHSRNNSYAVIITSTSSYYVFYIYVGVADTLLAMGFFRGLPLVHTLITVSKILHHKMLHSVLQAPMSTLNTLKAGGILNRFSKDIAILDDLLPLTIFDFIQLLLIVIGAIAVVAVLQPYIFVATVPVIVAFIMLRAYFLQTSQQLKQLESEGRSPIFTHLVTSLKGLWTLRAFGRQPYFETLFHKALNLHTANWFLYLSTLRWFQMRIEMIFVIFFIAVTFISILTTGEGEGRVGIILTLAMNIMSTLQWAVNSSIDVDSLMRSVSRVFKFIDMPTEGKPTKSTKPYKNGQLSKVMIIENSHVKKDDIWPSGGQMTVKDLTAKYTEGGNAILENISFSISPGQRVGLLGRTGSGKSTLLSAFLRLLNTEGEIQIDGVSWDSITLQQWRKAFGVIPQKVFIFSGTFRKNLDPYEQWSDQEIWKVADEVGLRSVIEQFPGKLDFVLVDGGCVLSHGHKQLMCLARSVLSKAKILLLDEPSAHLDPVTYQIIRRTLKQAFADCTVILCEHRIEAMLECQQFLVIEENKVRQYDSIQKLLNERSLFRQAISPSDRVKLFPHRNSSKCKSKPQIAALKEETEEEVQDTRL
T2 sequence (P13569 whole entry): as above

Oc1c(Cl)cc(-n2cnc(C(O)(c3cc(F)cc(F)c3)c3cc(F)cc(F)c3)n2)cc1Cl [Compound 52, 4-(3-(bis(3,5-difluorophenyl)(hydroxy)methyl)-1H-1,2,4-triazol-1-yl)-2,6-dichlorophenol]
% inhibition @ 100 μg dose (closed loop % inhibition) [1]: 55.3%

COCCOCCOCCOCCN(Cc1cccc(OC(F)(F)F)c1)C(=O)c1ncn(-c2cc(Cl)c(O)c(Cl)c2)n1 [Compound 115, 1-(3,5-dichloro-4-hydroxyphenyl)-N-(2,5,8,11-tetraoxatridecan-13-yl)-N-(3-(trifluoromethoxy)benzyl)-1H-1,2,4-triazole-3-carboxamide]
IC50 [2]: ≥ 50 µM

CC(C)c1ccc(CC(NC(=O)c2ncn(-c3cc(Cl)c(O)c(Cl)c3)n2)C(=O)C(C)(C)C)cc1 (stereo not shown) [Compound 134, 1-(3,5-dichloro-4-hydroxyphenyl)-N-(1-(4-isopropylphenyl)-4,4-dimethyl-3-oxopentan-2-yl)-1H-1,2,4-triazole-3-carboxamide]
% inhibition @ 100 μg dose (closed loop % inhibition) [1]: 71.7%

CC(C)(C)CCN(Cc1cccc(OC(F)(F)F)c1)C(=O)c1ncn(-c2cc(Cl)c(O)c(Cl)c2)n1 [Compound 77, 1-(3,5-dichloro-4-hydroxyphenyl)-N-(3,3-dimethylbutyl)-N-(3-(trifluoromethoxy)benzyl)-1H-1,2,4-triazole-3-carboxamide]
IC50 [2]: ≥ 50 µM

CON(Cc1ccc(C(C)C)cc1)C(=O)c1ncn(-c2cc(Cl)c(O)c(Cl)c2)n1 [Compound 128, 1-(3,5-dichloro-4-hydroxyphenyl)-N-(4-isopropylbenzyl)-N-methoxy-1H-1,2,4-triazole-3-carboxamide]
IC50 [2]: ≥ 50 µM

CN(C)c1cccc(Oc2ccc(CNC(=O)c3ncn(-c4cc(Cl)c(O)c(Cl)c4)n3)cc2)c1 [Compound 64, 1-(3,5-dichloro-4-hydroxyphenyl)-N-(4-(3-(dimethylamino)phenoxy)benzyl)-1H-1,2,4-triazole-3-carboxamide]
IC50 [3]: ≥ 50 µM

O=C(NCc1ccc(Oc2ccc(F)c(C(F)(F)F)c2)cc1)c1ncn(-c2cc(Cl)c(O)c(Cl)c2)n1 [Compound 67, 1-(3,5-dichloro-4-hydroxyphenyl)-N-(4-(4-fluoro-3-(trifluoromethyl)phenoxy)benzyl)-1H-1,2,4-triazole-3-carboxamide]
% inhibition @ 100 μg dose (closed loop % inhibition) [1]: 88.2%

CC(C)(C)CCN(Cc1cccc(C(F)(F)F)c1)C(=O)c1ncn(-c2cc(Cl)c(O)c(Cl)c2)n1 [Compound 79, 1-(3,5-dichloro-4-hydroxyphenyl)-N-(3,3-dimethylbutyl)-N-(3-(trifluoromethyl)benzyl)-1H-1,2,4-triazole-3-carboxamide]
IC50 [2]: ≥ 50 µM

O=C(NCc1ccc(Cl)c(Cl)c1)c1ncn(-c2cc(Cl)c(O)c(Cl)c2)n1 [Compound 37, 1-(3,5-dichloro-4-hydroxyphenyl)-N-(3,4-dichlorobenzyl)-1H-1,2,4-triazole-3-carboxamide]
% inhibition @ 100 μg dose (closed loop % inhibition) [1]: 76.9%

COCCOCCOCCOCCN(Cc1ccc(C(C)(C)C)cc1)C(=O)c1ncn(-c2cc(Cl)c(O)c(Cl)c2)n1 [Compound 120, N-(4-tert-butylbenzyl)-1-(3,5-dichloro-4-hydroxyphenyl)-N-(2,5,8,11-tetraoxatridecan-13-yl)-1H-1,2,4-triazole-3-carboxamide]
IC50 [2]: ≥ 50 µM

COCCOCCOCCOCCON(Cc1ccc(Oc2ccccc2)cc1)C(=O)c1ncn(-c2cc(Cl)c(O)c(Cl)c2)n1 [Compound 122, N-(2,5,8,11-tetraoxatridecan-13-yloxy)-1-(3,5-dichloro-4-hydroxyphenyl)-N-(4-phenoxybenzyl)-1H-1,2,4-triazole-3-carboxamide]
IC50 [2]: ≥ 50 µM

O=C(NC(c1ccccc1)c1ccccc1)c1ncn(-c2cc(Cl)c(O)c(Cl)c2)n1 [Compound 2, N-benzhydryl-1-(3,5-dichloro-4-hydroxyphenyl)-1H-1,2,4-triazole-3-carboxamide]
% inhibition @ 100 μg dose (closed loop % inhibition) [1]: 42.9%

COCCOCCOCCOCCOCCOCCOCCOCCN(Cc1ccc(C(C)(C)C)cc1)C(=O)c1ncn(-c2cc(Cl)c(O)c(Cl)c2)n1 [Compound 117, N-(4-tert-butylbenzyl)-1-(3,5-dichloro-4-hydroxyphenyl)-N-(2,5,8,11,14,17,20,23-octaoxapentacosan-25-yl)-1H-1,2,4-triazole-3-carboxamide]
IC50 [2]: ≥ 50 µM

C=CCN(Cc1ccc(C(C)C)cc1)C(=O)c1ncn(-c2cc(Cl)c(O)c(Cl)c2)n1 [Compound 101, N-allyl-1-(3,5-dichloro-4-hydroxyphenyl)-N-(4-isopropylbenzyl)-1H-1,2,4-triazole-3-carboxamide]
IC50 [2]: ≥ 50 µM

COCCOCCOCCN(Cc1cccc(OC(F)(F)F)c1)C(=O)c1ncn(-c2cc(Cl)c(O)c(Cl)c2)n1 [Compound 113, 1-(3,5-dichloro-4-hydroxyphenyl)-N-(2-(2-(2-methoxyethoxy)ethoxy)ethyl)-N-(3-(trifluoromethoxy)benzyl)-1H-1,2,4-triazole-3-carboxamide]
IC50 [2]: ≥ 50 µM

CC(C)(C)c1ccc(CN(CCOCCOCCOCCOCCOCCOCc2ccccc2)C(=O)c2ncn(-c3cc(Cl)c(O)c(Cl)c3)n2)cc1 [Compound 116, N-(4-tert-butylbenzyl)-1-(3,5-dichloro-4-hydroxyphenyl)-N-(1-phenyl-2,5,8,11,14,17-hexaoxanonadecan-19-yl)-1H-1,2,4-triazole-3-carboxamide]
IC50 [2]: ≥ 50 µM

COCCOCCOCCOCCN(Cc1ccc(Cl)c(Cl)c1)C(=O)c1ncn(-c2cc(Cl)c(O)c(Cl)c2)n1 [Compound 111, 1-(3,5-dichloro-4-hydroxyphenyl)-N-(3,4-dichlorobenzyl)-N-(2,5,8,11-tetraoxatridecan-13-yl)-1H-1,2,4-triazole-3-carboxamide]
IC50 [2]: ≥ 50 µM

Cc1noc(C)c1CCNC(=O)c1ncn(-c2cc(Cl)c(O)c(Cl)c2)n1 [Compound 74, 1-(3,5-dichloro-4-hydroxyphenyl)-N-(2-(3,5-dimethylisoxazol-4-yl)ethyl)-1H-1,2,4-triazole-3-carboxamide]
IC50 [2]: ≥ 50 µM

O=C(c1ncn(-c2cc(Cl)c(O)c(Cl)c2)n1)N(Cc1ccccc1)Cc1cccc(OC(F)(F)F)c1 [Compound 84, N-benzyl-1-(3,5-dichloro-4-hydroxyphenyl)-N-(3-(trifluoromethoxy)benzyl)-1H-1,2,4-triazole-3-carboxamide]
IC50 [2]: ≥ 50 µM

O=C(NCc1ccc(Oc2ccccc2)cc1)c1ncn(-c2cc(Cl)c(O)c(Cl)c2)n1 [Compound 49, 1-(3,5-dichloro-4-hydroxyphenyl)-N-(4-phenoxybenzyl)-1H-1,2,4-triazole-3-carboxamide]
% inhibition @ 100 μg dose (closed loop % inhibition) [1]: 42.3%

O=C(c1ncn(-c2cc(Cl)c(O)c(Cl)c2)n1)N(Cc1ccccc1)Cc1cccc(C(F)(F)F)c1 [Compound 85, N-benzyl-1-(3,5-dichloro-4-hydroxyphenyl)-N-(3-(trifluoromethyl)benzyl)-1H-1,2,4-triazole-3-carboxamide]
IC50 [2]: ≥ 50 µM

COCCOCCOCCOCCOCCN(Cc1ccc(C(C)(C)C)cc1)C(=O)c1ncn(-c2cc(Cl)c(O)c(Cl)c2)n1 [Compound 118, N-(4-tert-butylbenzyl)-1-(3,5-dichloro-4-hydroxyphenyl)-N-(2,5,8,11,14-pentaoxahexadecan-16-yl)-1H-1,2,4-triazole-3-carboxamide]
IC50 [2]: ≥ 50 µM

O=C(NCCC(c1ccccc1)c1ccccc1)c1ncn(-c2cc(Cl)c(O)c(Cl)c2)n1 [Compound 31, 1-(3,5-dichloro-4-hydroxyphenyl)-N-(3,3-diphenylpropyl)-1H-1,2,4-triazole-3-carboxamide]
% inhibition @ 100 μg dose (closed loop % inhibition) [1]: 45.1%

COCCOCCOCCON(Cc1ccc(Oc2ccccc2)cc1)C(=O)c1ncn(-c2cc(Cl)c(O)c(Cl)c2)n1 [Compound 123, 1-(3,5-dichloro-4-hydroxyphenyl)-N-(2-(2-(2-methoxyethoxy)ethoxy)ethoxy)-N-(4-phenoxybenzyl)-1H-1,2,4-triazole-3-carboxamide]
IC50 [2]: ≥ 50 µM

COCCOCCOCCOCCOCCOCCOCCOCCON(Cc1ccc(Oc2ccccc2)cc1)C(=O)c1ncn(-c2cc(Cl)c(O)c(Cl)c2)n1 [Compound 121, N-(2,5,8,11,14,17,20,23-octaoxapentacosan-25-yloxy)-1-(3,5-dichloro-4-hydroxyphenyl)-N-(4-phenoxybenzyl)-1H-1,2,4-triazole-3-carboxamide]
IC50 [2]: ≥ 50 µM
